This note sets out measurements from ChEMBL document CHEMBL1201862, “PubChem BioAssay data set” (2004).

Test systems include NCI-H23; SK-OV-3; PC-3; T47D; HCC 2998; K562; HL-60; UACC-257; MDA-MB-231; MDA-MB-435; ACHN; SK-MEL-28; Hs-578T; OVCAR-4; HCT-116; SK-MEL-2; A498; IGROV-1; BT-549.
Holding throughout (assay): growth of human tumour cells (NCI), 48 h

The structures appear in SMILES notation.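 A five-concentration, 48-hour dose response in 96-well plates underlies each endpoint, interpolated linearly between surrounding concentrations. GI50 = concentration required for 50% inhibition of growth.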 The source made the active and inactive calls. Rule as the data show it: active = GI50 up to about 1.1 µM and inactive = higher. A value given as a limit tells only on which side of the number the result lay.

For the compound `CCOC(=O)c1cnc2oc3ccc(O)cc3c2c1-c1ccccc1`, the GI50 with NCI-H23 was 32.7 µM (inactive); in the experiment on SK-OV-3, 15.8 µM (inactive); in the experiment with PC-3, 18 µM (inactive); in the experiment with T47D, > 100 µM (inactive); in the experiment on HCC 2998 it was > 100 µM (inactive); in the experiment on K562, 17.6 µM (inactive). The GI50 is 14.6 µM (inactive) in the experiment on HL-60; > 100 µM (inactive) in the experiment with UACC-257; 16.8 µM (inactive) in the experiment on MDA-MB-231; 19.2 µM (inactive) in the experiment on MDA-MB-435; 20.9 µM (inactive) in the experiment with ACHN; 36.6 µM (inactive) with SK-MEL-28. In addition, the GI50 in the experiment with Hs-578T is 20.6 µM (inactive); with OVCAR-4, 24.4 µM (inactive); in the experiment on HCT-116, 57.8 µM (inactive); with SK-MEL-2, 15.1 µM (inactive); in the experiment with A498 it was > 100 µM (inactive).

As for `Cc1ccc(NC(=S)N/N=C2\C(=O)Nc3ccccc32)cc1`, the GI50 with NCI-H23, in the experiment with SK-OV-3, in the experiment on PC-3, in the experiment with T47D, in the experiment with HCC 2998 and with K562 was > 100 µM (inactive) in each case. Besides, the GI50 in the experiment on HL-60 was > 100 µM (inactive); in the experiment with UACC-257 it was > 100 µM (inactive); with MDA-MB-231, > 100 µM (inactive); with MDA-MB-435, > 100 µM (inactive); in the experiment on ACHN, 61.5 µM (inactive); with SK-MEL-28, 4.76 µM (inactive). In addition, the GI50 was > 100 µM (inactive) with Hs-578T; > 100 µM (inactive) in the experiment with OVCAR-4; 84.7 µM (inactive) in the experiment on IGROV-1; > 100 µM (inactive) in the experiment with HCT-116; 97.7 µM (inactive) in the experiment on SK-MEL-2; 51.6 µM (inactive) in the experiment on A498.

Turning to `O=C1CN(c2cccc(Cl)c2)C(=O)CN1CCN1CC(=O)N(c2cccc(Cl)c2)CC1=O`, the GI50 was 26.4 µM (inactive) in the experiment with NCI-H23; > 100 µM (inactive) with SK-OV-3; > 100 µM (inactive) in the experiment with PC-3; > 100 µM (inactive) in the experiment on HCC 2998; > 100 µM (inactive) in the experiment on HL-60; > 100 µM (inactive) in the experiment with UACC-257. The GI50 in the experiment on BT-549, with MDA-MB-435, in the experiment on ACHN, in the experiment on SK-MEL-28, in the experiment with Hs-578T and in the experiment with OVCAR-4 was > 100 µM (inactive) each time. Besides, the GI50 in the experiment on IGROV-1, with HCT-116 and in the experiment with A498 was > 100 µM (inactive) in each case.

`C[C@@H](c1ccccc1)N(CC#N)[C@H]1CCC[C@]1(O)/C=C/c1ccc2c(c1)OCO2`: the GI50 with NCI-H23, with SK-OV-3, with PC-3, in the experiment with T47D, in the experiment on HCC 2998 and in the experiment on K562 was > 25 µM (inactive) each time. Besides, the GI50 in the experiment on HL-60 is > 25 µM (inactive); with UACC-257, > 25 µM (inactive); with MDA-MB-231, > 25 µM (inactive); with MDA-MB-435, > 25 µM (inactive); in the experiment on ACHN, 4.31 µM (inactive); in the experiment with SK-MEL-28 it was > 25 µM (inactive). The GI50 in the experiment with Hs-578T is > 25 µM (inactive); in the experiment with OVCAR-4 it was > 25 µM (inactive); in the experiment on IGROV-1, > 25 µM (inactive); in the experiment on HCT-116, > 25 µM (inactive); in the experiment with SK-MEL-2, > 25 µM (inactive); in the experiment on A498, 3.48 µM (inactive).

On to `CCOC(=O)CC(=O)N(c1ccc(OC)cc1)C(C(=O)OC)c1ccccc1` (configuration not stated), for which the GI50 with NCI-H23, in the experiment with PC-3, in the experiment on T47D, in the experiment with K562, in the experiment with UACC-257 and in the experiment with MDA-MB-435 was > 100 µM (inactive) each time. The GI50 in the experiment on ACHN, with SK-MEL-28, with Hs-578T, in the experiment on IGROV-1, with HCT-116 and with SK-MEL-2 was > 100 µM (inactive) each time.

Take `CC(=O)Oc1c(C)cc2c(c1C)C(C)(C)CN2C(=O)C(C)(C)C`: the GI50 in the experiment on NCI-H23 is 81.1 µM (inactive); in the experiment on SK-OV-3, > 100 µM (inactive); with PC-3 it was 35.1 µM (inactive); in the experiment with T47D, 31.6 µM (inactive); in the experiment with HCC 2998, > 100 µM (inactive); in the experiment on K562 it was 51.9 µM (inactive). The GI50 in the experiment on HL-60 is 63.8 µM (inactive); in the experiment on UACC-257, > 100 µM (inactive); in the experiment with MDA-MB-231, > 100 µM (inactive); with MDA-MB-435, 77.8 µM (inactive); in the experiment on ACHN it was > 100 µM (inactive); in the experiment on SK-MEL-28 it was > 100 µM (inactive). Moreover, the GI50 in the experiment on Hs-578T is > 100 µM (inactive); in the experiment with OVCAR-4, 71.8 µM (inactive); with IGROV-1, > 100 µM (inactive); in the experiment on HCT-116, 67.9 µM (inactive); in the experiment with SK-MEL-2, > 100 µM (inactive); in the experiment on A498, 55.6 µM (inactive).

Turning to `CCOC(=O)c1cnc2oc(/C=N/N3CC(CN4CCOCC4)OC3=O)cc2c1O` (configuration not stated), the GI50 in the experiment on NCI-H23, with SK-OV-3, in the experiment with PC-3, with T47D, in the experiment with HCC 2998 and with K562 was > 100 µM (inactive) in each case. Further, the GI50 in the experiment on HL-60, in the experiment with UACC-257, with MDA-MB-231, in the experiment on MDA-MB-435, in the experiment on ACHN and in the experiment on SK-MEL-28 was > 100 µM (inactive) in each case. Besides, the GI50 with Hs-578T, in the experiment on OVCAR-4, with IGROV-1, in the experiment on HCT-116 and in the experiment with SK-MEL-2 was > 100 µM (inactive) in each case.

As for `COc1cccc(N2C(=O)/C(=C/c3ccc(N(CCC#N)CCC#N)cc3)N=C2c2cc([N+](=O)[O-])ccc2Cl)c1`, the GI50 with NCI-H23 is 89.1 µM (inactive); in the experiment on SK-OV-3, > 100 µM (inactive); with HCC 2998, 60.5 µM (inactive); in the experiment with K562 it was 34.5 µM (inactive); with HL-60, 49.8 µM (inactive); in the experiment on UACC-257, > 100 µM (inactive). Also, the GI50 with ACHN was 44 µM (inactive); in the experiment on SK-MEL-28, > 100 µM (inactive); in the experiment with OVCAR-4 it was > 100 µM (inactive); with IGROV-1, 50.7 µM (inactive); with SK-MEL-2, > 100 µM (inactive); in the experiment on A498, > 100 µM (inactive).

With `N#Cc1nc(CCC(C(=O)O)N2C(=O)c3ccccc3C2=O)oc1N` (configuration not stated), the GI50 with NCI-H23, with SK-OV-3, in the experiment on PC-3, with T47D, in the experiment on HCC 2998 and in the experiment with K562 was > 100 µM (inactive) each time. In addition, the GI50 with HL-60, in the experiment on UACC-257, in the experiment on MDA-MB-231, in the experiment on MDA-MB-435, in the experiment on ACHN and in the experiment with SK-MEL-28 was > 100 µM (inactive) in each case. Also, the GI50 in the experiment on Hs-578T was > 100 µM (inactive); with OVCAR-4, > 100 µM (inactive); with IGROV-1 it was > 100 µM (inactive); with HCT-116 it was > 10 µM (inactive); in the experiment with SK-MEL-2, > 100 µM (inactive); in the experiment with A498, > 100 µM (inactive).

As for `c1ccc2c(c1)-c1ccccc1C2NC1=NCCO1`, the GI50 in the experiment with NCI-H23 is 34.1 µM (inactive); in the experiment on SK-OV-3, 31.4 µM (inactive); in the experiment with PC-3 it was 20.5 µM (inactive); in the experiment with T47D it was 39.4 µM (inactive); with HCC 2998 it was 15.6 µM (inactive); in the experiment with K562, 32.8 µM (inactive). The GI50 in the experiment on HL-60 was 26.5 µM (inactive); with MDA-MB-231, 24.3 µM (inactive); with MDA-MB-435, 23 µM (inactive); in the experiment with ACHN, 28.8 µM (inactive); in the experiment on SK-MEL-28, 24.9 µM (inactive); in the experiment with Hs-578T, 55 µM (inactive). The GI50 is 25.2 µM (inactive) in the experiment with OVCAR-4; 16.4 µM (inactive) in the experiment on IGROV-1; 16.7 µM (inactive) with HCT-116; 18.8 µM (inactive) in the experiment on SK-MEL-2; 18.2 µM (inactive) in the experiment on A498.

In the case of `COc1ccc2nc3ccccc3c(NCCCCN(CCCl)CCCl)c2c1`, the GI50 in the experiment with NCI-H23 is 0.147 µM (active); in the experiment with SK-OV-3 it was 1.22 µM (inactive); in the experiment with PC-3 it was 0.316 µM (active); in the experiment on T47D it was 1.26 µM (inactive); in the experiment on HCC 2998, 1.04 µM (active); in the experiment with K562, 0.0376 µM (active). Further, the GI50 in the experiment with HL-60 was 0.0186 µM (active); in the experiment with UACC-257 it was 1.05 µM (active); in the experiment on MDA-MB-231 it was 0.7 µM (active); with MDA-MB-435 it was 0.323 µM (active); in the experiment on ACHN it was 0.041 µM (active); in the experiment on SK-MEL-28, 0.752 µM (active). Moreover, the GI50 with Hs-578T is 2 µM (inactive); in the experiment on OVCAR-4 it was 0.148 µM (active); in the experiment with IGROV-1 it was 0.227 µM (active); with HCT-116 it was 0.0733 µM (active); with SK-MEL-2, 0.703 µM (active); in the experiment with A498 it was 0.109 µM (active).

`C=C(C)[C@@H]1CC[C@]2(COC(C)=O)CC[C@]3(C)[C@H](CC[C@@H]4[C@@]5(C)CC[C@H](OC(C)=O)C(C)(C)[C@@H]5CC[C@]43C)[C@@H]12` [BETULIN DIACETATE]: the GI50 with NCI-H23 is > 50 µM (inactive); with SK-OV-3, > 50 µM (inactive); in the experiment on PC-3, > 50 µM (inactive); in the experiment with HCC 2998, 0.857 µM (active); in the experiment with K562, > 50 µM (inactive); in the experiment with HL-60 it was > 33.1 µM (inactive). Moreover, the GI50 with UACC-257, in the experiment on BT-549, in the experiment with MDA-MB-435, in the experiment with ACHN, in the experiment with SK-MEL-28 and in the experiment on Hs-578T was > 50 µM (inactive) in each case. The GI50 in the experiment on OVCAR-4, with IGROV-1, in the experiment on HCT-116, with SK-MEL-2 and with A498 was > 50 µM (inactive) throughout.
